Experimental data reported in patent publication US20070123551A1, “Use of metabotropic glutamarate receptor 5 (mglur5) antagonists for the treatment of gastrointestinal disorders” (priority 2003, published 2007).

Tested on: WKY rats
Assay: in vivo gastric distension model (barostat, ramp and tonic distension) in conscious WKY rats
Parameters: species or system Wistar Kyoto rats
Text: An in vivo gastric distension model is used as a model for functional gastrointestinal disorders, in particular for functional dyspepsia (Bayati A, Astin M, Ekman C, Mattsson H. Wistar Kyoto rats have impaired gastric adaptive accommodation in response to gastric distension. Gastroenterology 2003; 124 (4, suppl 1): W1471 (abstract)).
The gastric distension model enables detailed analysis of the physico-mechanical properties of the stomach, e.g. basal gastric tone, threshold for accommodation, accommodation rate, accommodation volume, and maximal gastric volume. […] Furthermore, it has been shown that patients with Functional Dyspepsia as well as Wistar Kyoto (WKY) rats have an impaired gastric adaptive response and also a lower total gastric volume as compared to healthy subjects and Sprague Dawley (SD) rats, respectively. In addition, the method has shown to be reproducible and reliable. Moreover, the advantage of the presently used barostat technique compared to other barostat techniques normally used in experimental clinical studies is that it is possible to discriminate between if a compound exerts its effect directly on gastric smooth muscles or if the effect involves the vagal reflex mechanism.
The rats are equipped with fistulas chronically implanted into the stomach. During gastric barostat experiments, a small inflatable plastic bag with a spherical shape is inserted through fistula into the glandular part of the stomach (middle to distal part in the rat). The experiments are performed in conscious rats. For detailed analysis of the physico-mechanical properties of the stomach, a combination of ramp and tonic distension paradigm is used. Pressure and volume data collected during experiments are saved for and further analysis.
In order to determine an animal's maximum gastric accommodation capacity, a balloon is inserted into the stomach of the animal and a four phase protocol which includes a start phase, a ramp phase, a tonic phase and an end phase is performed. A barostat system maintains the pressure by pumping air into and out of the balloon. The pressure applied to the balloon and the corresponding changes to the volume of the balloon are monitored throughout, e.g., using any barostat system known in the art (e.g., see Toma et al, Neurogastroenterol. Mot., 8, 19-28, 1996).
During the start phase a minimum distension pressure, e.g., 1 mmHg, is applied to the balloon until base line values are obtained. This is followed by a Ramp Phase. During this phase the pressure applied to the balloon is increased linearly with a constant increase in pressure to a preset maximum value. This second phase is then followed by the Tonic Phase at which the preset maximum pressure is kept constant. Finally, the pressure is rapidly dropped to the starting minimum distension pressure and this period is known as the End Phase.
To determine if an agent, e.g., a compound is useful in the treatment of FD, the maximum gastric accommodation rate in the WKY rat following administration of the compound is calculated. A compound of interest will be a compound that alters the maximum gastric accommodation rate in the animal and this is calculated by determining a difference in the maximum gastric accommodation rate before and after administration of the compound.
The Wistar Kyoto rats (WKY; M&B Denmark) are starved about 6 or 18 hours before each experiment depending on if the experiments are performed in the morning or in the afternoon. […]

[1] = 10 μmol/kg intravenously 3-5 min before start of ramp phase, compared to the control situation, FIG. 1

Cc1cccc(C#Cc2ccccc2)n1 [MPEP, 2-methyl-6-(phenylethynyl)-pyridine]
gastric volume during the ramp phase [1]: increase | gastric volume during the tonic phase [1]: increase | accommodation rate (the slope of volume curve during the tonic phase) (10 μmol/kg intravenously, FIG. 1): increased | maximum gastric volume (10 μmol/kg intravenously, compared to the control situation, FIG. 1): increased | accommodation capacity (10 μmol/kg intravenously, conclusion): increases
